In PMC10235067, “Increased renal elimination of endogenous and synthetic pyrimidine nucleosides in concentrative nucleoside transporter 1 deficient mice” (Nature Communications, 2023):
Values joined by “and” are separate entries in the source; they are usually repeats but may differ in a detail not shown here. Equal entries are not always repeated. Structures can show the parent of a compound that is named as a salt.

Assay: Gemcitabine plasma pharmacokinetics in Slc28a1+/+ and Slc28a1-/- mice
Conditions: for AUCINF_D_obs / AUCINF_D_pred / AUCINF_obs / AUCINF_pred / AUC_%Back_Ext_obs / AUC_%Back_Ext_pred / AUC_%Extrap_obs / AUC_%Extrap_pred / AUCall / AUClast / AUClast_D / AUMCINF_obs / AUMCINF_pred / AUMC_%Extrap_obs / AUMC_%Extrap_pred / AUMClast / C0 / Cl_obs / Cl_pred / Clast / Clast_pred / Cmax_D / HL_Lambda_z / Lambda_z / MRTINF_obs / MRTINF_pred / MRTlast / Tlast / Tmax / Vss_obs / Vss_pred / Vz_obs / Vz_pred: Gemcitabine in plasma, iv gemcitabine 50mg/kg, per mouse; for AUC (Last): plasma
[1] = Slc28a1-/- mice, single i.v. dFdC 50 mg/kg

Nc1ccn([C@@H]2O[C@H](CO)[C@@H](O)C2(F)F)c(=O)n1 [dFdC, Gemcitabine hydrochloride, reference compound]
AUCINF_D_obs (KO mice): 916.304 kg·ng·min/mL/mg and 1339.88 kg·ng·min/mL/mg and 778.001 kg·ng·min/mL/mg and 1050.65 kg·ng·min/mL/mg and 1326.68 kg·ng·min/mL/mg and 1607.46 kg·ng·min/mL/mg
AUCINF_D_pred (KO mice): 916.913 kg·ng·min/mL/mg and 1340.31 kg·ng·min/mL/mg and 775.108 kg·ng·min/mL/mg and 1031 kg·ng·min/mL/mg and 1323.42 kg·ng·min/mL/mg and 1604.92 kg·ng·min/mL/mg
AUCINF_obs (KO mice): 45815.2 ng·min/mL and 66994.2 ng·min/mL and 38900.1 ng·min/mL and 52532.6 ng·min/mL and 66334.2 ng·min/mL and 80373 ng·min/mL
AUCINF_pred (KO mice): 45845.6 ng·min/mL and 67015.6 ng·min/mL and 38755.4 ng·min/mL and 51550 ng·min/mL and 66171.1 ng·min/mL and 80246 ng·min/mL
AUC_%Back_Ext_obs (KO mice): 23.4974% and 21.9481% and 43.9469% and 42.6077% and 48.9911% and 43.8068%
AUC_%Back_Ext_pred (KO mice): 23.4818% and 21.941% and 44.1109% and 43.4198% and 49.1119% and 43.8762%
AUC_%Extrap_obs (KO mice): 23.7% and 27.5311% and 0.9315% and 2.802% and 0.4504% and 6.001%
AUC_%Extrap_pred (KO mice): 23.7507% and 27.5543% and 0.5618% and 0.9493% and 0.2051% and 5.852%
AUCall (KO mice): 36446.4 ng·min/mL and 50206 ng·min/mL and 39423.8 ng·min/mL and 51060.7 ng·min/mL and 66882.1 ng·min/mL and 76930.3 ng·min/mL
AUClast (KO mice): 34957 ng·min/mL and 48549.9 ng·min/mL and 38537.7 ng·min/mL and 51060.7 ng·min/mL and 66035.4 ng·min/mL and 75549.7 ng·min/mL
AUClast_D (KO mice): 699.14 kg·ng·min/mL/mg and 970.999 kg·ng·min/mL/mg and 770.754 kg·ng·min/mL/mg and 1021.21 kg·ng·min/mL/mg and 1320.71 kg·ng·min/mL/mg and 1510.99 kg·ng·min/mL/mg
AUMCINF_obs (KO mice): 6487547 min*min*ng/mL and 15108021 min*min*ng/mL and 317047 min*min*ng/mL and 1417805 min*min*ng/mL and 460548 min*min*ng/mL and 2237155 min*min*ng/mL
AUMCINF_pred (KO mice): 6504522 min*min*ng/mL and 15124898 min*min*ng/mL and 306594 min*min*ng/mL and 1123964 min*min*ng/mL and 449037 min*min*ng/mL and 2195280 min*min*ng/mL
AUMC_%Extrap_obs (KO mice): 93.2939% and 96.2322% and 8.26% and 31.0459% and 4.579% and 71.0667%
AUMC_%Extrap_pred (KO mice): 93.3114% and 96.2364% and 5.1318% and 13.0191% and 2.133% and 70.5148%
AUMClast (KO mice): 435061 min*min*ng/mL and 569242 min*min*ng/mL and 290860 min*min*ng/mL and 977634 min*min*ng/mL and 439460 min*min*ng/mL and 647283 min*min*ng/mL
C0 (KO mice): 2226.24 ng/mL and 3096.19 ng/mL and 4174.86 ng/mL and 5972.33 ng/mL and 9031.34 ng/mL and 9852.43 ng/mL
Cl_obs (KO mice): 1091.34 mL/min/kg and 746.334 mL/min/kg and 1285.35 mL/min/kg and 951.789 mL/min/kg and 753.759 mL/min/kg and 622.099 mL/min/kg
Cl_pred (KO mice): 1090.62 mL/min/kg and 746.095 mL/min/kg and 1290.14 mL/min/kg and 969.932 mL/min/kg and 755.617 mL/min/kg and 623.084 mL/min/kg
Clast (KO mice): 24.8237 ng/mL and 27.6006 ng/mL and 29.5353 ng/mL and 24.934 ng/mL and 28.2215 ng/mL and 23.0093 ng/mL
Clast_pred (KO mice): 24.8933 ng/mL and 27.6326 ng/mL and 17.7456 ng/mL and 8.289 ng/mL and 12.8177 ng/mL and 22.4033 ng/mL
Cmax_D (KO mice): 41.5984 kg·ng/mL/mg and 55.7076 kg·ng/mL/mg and 53.2658 kg·ng/mL/mg and 59.6169 kg·ng/mL/mg and 79.356 kg·ng/mL/mg and 84.6224 kg·ng/mL/mg
HL_Lambda_z (KO mice): 303.191 min and 463.2 min and 8.504 min and 40.9198 min and 7.338 min and 145.3 min
Lambda_z (KO mice): 0.002286 min⁻¹ and 0.001496 min⁻¹ and 0.08151 min⁻¹ and 0.01694 min⁻¹ and 0.09446 min⁻¹ and 0.00477 min⁻¹
MRTINF_obs (KO mice): 141.603 min and 225.512 min and 8.15 min and 26.989 min and 6.943 min and 27.8346 min
MRTINF_pred (KO mice): 141.879 min and 225.692 min and 7.911 min and 21.8034 min and 6.786 min and 27.3569 min
MRTlast (KO mice): 12.4456 min and 11.7249 min and 7.547 min and 19.1465 min and 6.655 min and 8.568 min
Tlast (KO mice): 120 min and 60 min and 240 min
Tmax (KO mice): 5 min
Vss_obs (KO mice): 154.537 L/kg and 168.308 L/kg and 10.4759 L/kg and 25.6879 L/kg and 5.23323 L/kg and 17.3159 L/kg
Vss_pred (KO mice): 154.735 L/kg and 168.388 L/kg and 10.2063 L/kg and 21.1478 L/kg and 5.12762 L/kg and 17.0456 L/kg
Vz_obs (KO mice): 477.366 L/kg and 498.742 L/kg and 15.7693 L/kg and 56.1887 L/kg and 7.97936 L/kg and 130.407 L/kg
Vz_pred (KO mice): 477.049 L/kg and 498.582 L/kg and 15.8281 L/kg and 57.2597 L/kg and 7.99903 L/kg and 130.613 L/kg
AUCINF_D_obs (WT mice): 1342.37 kg·ng·min/mL/mg and 2003.95 kg·ng·min/mL/mg and 1404.16 kg·ng·min/mL/mg and 1832.16 kg·ng·min/mL/mg and 1677.59 kg·ng·min/mL/mg and 1947.35 kg·ng·min/mL/mg
AUCINF_D_pred (WT mice): 1351.51 kg·ng·min/mL/mg and 2009.55 kg·ng·min/mL/mg and 1397.88 kg·ng·min/mL/mg and 1826.34 kg·ng·min/mL/mg and 1669.05 kg·ng·min/mL/mg and 1936.73 kg·ng·min/mL/mg
AUCINF_obs (WT mice): 100198 ng·min/mL and 70207.8 ng·min/mL and 91608.1 ng·min/mL and 83879.3 ng·min/mL and 97367.3 ng·min/mL
AUCINF_pred (WT mice): 100478 ng·min/mL and 69893.8 ng·min/mL and 91317 ng·min/mL and 83452.5 ng·min/mL and 96836.3 ng·min/mL
AUC_%Back_Ext_obs (WT mice): 12.8582% and 20.8763% and 29.2762% and 32.2576% and 32.4305% and 25.1142%
AUC_%Back_Ext_pred (WT mice): 12.7713% and 20.8181% and 29.4077% and 32.3604% and 32.5963% and 25.252%
AUC_%Extrap_obs (WT mice): 9.702% and 18.5437% and 0.7839% and 0.5327% and 0.8134% and 0.9221%
AUC_%Extrap_pred (WT mice): 10.3129% and 18.7708% and 0.3382% and 0.2157% and 0.3062% and 0.3788%
AUCall (WT mice): 81617.2 ng·min/mL and 71149.3 ng·min/mL and 92539.9 ng·min/mL and 85061.6 ng·min/mL and 98831 ng·min/mL
AUClast (WT mice): 81617.2 ng·min/mL and 69657.4 ng·min/mL and 91120.1 ng·min/mL and 83197 ng·min/mL and 96469.4 ng·min/mL
AUClast_D (WT mice): 1212.13 kg·ng·min/mL/mg and 1632.34 kg·ng·min/mL/mg and 1393.15 kg·ng·min/mL/mg and 1822.4 kg·ng·min/mL/mg and 1663.94 kg·ng·min/mL/mg and 1929.39 kg·ng·min/mL/mg
AUMCINF_obs (WT mice): 5069956 min*min*ng/mL and 20471433 min*min*ng/mL and 1064873 min*min*ng/mL and 1254821 min*min*ng/mL and 1108567 min*min*ng/mL and 1728699 min*min*ng/mL
AUMCINF_pred (WT mice): 5292862 min*min*ng/mL and 20755711 min*min*ng/mL and 1020250 min*min*ng/mL and 1213897 min*min*ng/mL and 1047980 min*min*ng/mL and 1652866 min*min*ng/mL
AUMC_%Extrap_obs (WT mice): 62.651% and 92.1199% and 7.346% and 5.469% and 8.737% and 7.417%
AUMC_%Extrap_pred (WT mice): 64.2239% and 92.2278% and 3.293% and 2.282% and 3.461% and 3.17%
AUMClast (WT mice): 1893578 min*min*ng/mL and 1613171 min*min*ng/mL and 986649 min*min*ng/mL and 1186197 min*min*ng/mL and 1011712 min*min*ng/mL and 1600474 min*min*ng/mL
C0 (WT mice): 1738.74 ng/mL and 4426.87 ng/mL and 4597.66 ng/mL and 7279.69 ng/mL and 6681.38 ng/mL and 5877.84 ng/mL
Cl_obs (WT mice): 499.014 mL/min/kg and 712.172 mL/min/kg and 545.803 mL/min/kg and 596.095 mL/min/kg and 513.519 mL/min/kg
Cl_pred (WT mice): 739.914 mL/min/kg and 497.623 mL/min/kg and 715.371 mL/min/kg and 547.543 mL/min/kg and 599.143 mL/min/kg and 516.335 mL/min/kg
Clast (WT mice): 26.282 ng/mL and 23.9761 ng/mL and 24.8646 ng/mL and 23.6637 ng/mL and 31.0775 ng/mL and 39.3598 ng/mL
Clast_pred (WT mice): 28.1263 ng/mL and 24.3375 ng/mL and 10.6806 ng/mL and 9.552 ng/mL and 11.6372 ng/mL and 16.0822 ng/mL
Cmax_D (WT mice): 35.2165 kg·ng/mL/mg and 78.8031 kg·ng/mL/mg and 72.4804 kg·ng/mL/mg and 90.8107 kg·ng/mL/mg and 83.992 kg·ng/mL/mg and 78.0677 kg·ng/mL/mg
HL_Lambda_z (WT mice): 171.744 min and 537.158 min and 15.3422 min and 14.2945 min and 15.2178 min and 15.8118 min
Lambda_z (WT mice): 0.004036 min⁻¹ and 0.00129 min⁻¹ and 0.04518 min⁻¹ and 0.04849 min⁻¹ and 0.04555 min⁻¹ and 0.04384 min⁻¹
MRTINF_obs (WT mice): 75.5375 min and 204.311 min and 15.1675 min and 13.6977 min and 13.2162 min and 17.7544 min
MRTINF_pred (WT mice): 78.3253 min and 206.57 min and 14.5971 min and 13.2932 min and 12.5578 min and 17.0687 min
MRTlast (WT mice): 31.2438 min and 19.7651 min and 14.1643 min and 13.018 min and 12.1604 min and 16.5905 min
Tlast (WT mice): 240 min and 120 min
Tmax (WT mice): 15 min
Vss_obs (WT mice): 56.2718 L/kg and 101.954 L/kg and 10.8018 L/kg and 7.47626 L/kg and 7.87812 L/kg and 9.11723 L/kg
Vss_pred (WT mice): 57.954 L/kg and 102.794 L/kg and 10.4424 L/kg and 7.27861 L/kg and 7.52393 L/kg and 8.81315 L/kg
Vz_obs (WT mice): 184.58 L/kg and 386.714 L/kg and 15.7633 L/kg and 11.2559 L/kg and 13.087 L/kg and 11.7142 L/kg
Vz_pred (WT mice): 183.332 L/kg and 385.636 L/kg and 15.8341 L/kg and 11.2918 L/kg and 13.154 L/kg and 11.7784 L/kg
AUC (Last) (Slc28a1+/+ mice, single i.v. dFdC 50 mg/kg): 81307.3 ± 4123.2 ng x min/mL and 81307 ng x min/mL
AUC (Last) [1]: 52203.2 ± 3611.3 ng x min/mL and 52203 ng x min/mL
CL (systemic clearance) [1]: 950 mL/min/kg
